Reference: ChEMBL document CHEMBL3044970, “Isoniazid: the magic molecule” (2012)
≈ marks a conversion by molar mass, not a printed value.

Experiments:
Type in all cases: functional
[1] = system: Mycobacterium tuberculosis; assay: Antimicrobial activity against Mycobacterium tuberculosis H37Rv infected macrophage model
[2] = system: Mycobacterium tuberculosis; assay: Antimicrobial activity against Mycobacterium tuberculosis H37Rv
[3] = system: Mycobacterium tuberculosis; assay: Ratio of INH MIC to compound MIC for Mycobacterium tuberculosis H37Rv
[4] = system: Mycobacterium tuberculosis; assay: Antimicrobial activity against Mycobacterium tuberculosis
[5] = system: Mycobacterium tuberculosis; assay: Antimicrobial activity against Mycobacterium tuberculosis H4
[6] = system: Mycobacterium tuberculosis; assay: Antimicrobial activity against Mycobacterium tuberculosis H37Rv by agar dilution method relative to isonicotinoyl hydrazide

SMILES | MIC [2] | MIC [4] | MIC [5] | further results
O=C1NC(NNC(=O)c2ccncc2)=N/C1=C\c1cccc(Cl)c1 | – | – | – | MIC [1]: 0.8 µg/mL (≈ 2.34 µM)
COc1ccc(C2SCC(=O)N2NC(=O)c2ccncc2)cc1O (centres undefined) | 0.31 µg/mL | – | – | –
COc1ccc(C2C(Cl)C(=O)N2NC(=O)c2ccncc2)cc1O (centres undefined) | 0.31 µg/mL | – | – | –
COc1cc(C2=NN(C(=O)c3ccncc3)C(c3ccc(O)cc3)C2)ccc1OCC(=O)O (centres undefined) | 0.12 µM | – | – | Ratio [3]: 5.6
O=C(c1ccncc1)N1N=C(c2ccccn2)CC1c1cccc(Cl)c1 (centres undefined) | – | 8 µg/mL (≈ 22 µM) | 8 µg/mL (≈ 22 µM) | –
O=C(c1ccncc1)N1N=C(c2ccccn2)CC1c1ccc(Cl)cc1 (centres undefined) | – | 8 µg/mL (≈ 22 µM) | 8 µg/mL (≈ 22 µM) | –
Cc1ccccc1C1CC(c2ccccn2)=NN1C(=O)c1ccncc1 (centres undefined) | – | 8 µg/mL (≈ 23.4 µM) | 8 µg/mL (≈ 23.4 µM) | –
O=C(c1ccncc1)N1N=C(c2ccccn2)CC1c1ccccc1 (centres undefined) | – | 8 µg/mL (≈ 24.4 µM) | 8 µg/mL (≈ 24.4 µM) | –
O=C(c1ccncc1)N1N=C(c2ccccn2)CC1c1ccccc1Cl (centres undefined) | – | 8 µg/mL (≈ 22 µM) | 8 µg/mL (≈ 22 µM) | –
O=C(NNC(=S)Nc1ccccc1C(F)(F)F)c1ccncc1 | 0.58 µM | – | – | Ratio [6]: 1.24
NNC(=O)c1ccncc1 [ISONIAZID] | – | 0.05 µg/mL (≈ 0.365 µM) | – | –
CO[C@H]1/C=C/O[C@@]2(C)Oc3c(C)c(O)c4c(O)c(c(/C=N/N5CCN(C)CC5)c(O)c4c3C2=O)NC(=O)/C(C)=C\C=C\[C@H](C)[C@H](O)[C@@H](C)[C@@H](O)[C@@H](C)[C@H](OC(C)=O)[C@@H]1C [RIFAMPIN] | 0.2 µg/mL | – | – | –
